From patent US20230285374A1, “THERAPEUTIC METHODS USING VADADUSTAT” (Akebia Therapeutics, Inc., priority 2019, published 2023) come the findings set out here.

Series [1] concerns stage 3, 4, or 5 CKD patients. The experiment in a line: Phase 2a clinical trials in stage 3, 4, or 5 CKD patients (iron parameters vs placebo). The class given is in vivo, human. Here is the method: In certain embodiments, unsaturated iron binding capacity (UIBC) may be determined by adding serum to an alkaline buffer/reductant solution containing a known concentration of iron to saturate the available binding sites on transferrin. The Ferrozine chromogen reacts only with the Fe^2+; therefore, an iron reductant is added to insure that all iron is present in the ferrous state. The excess unbound divalent iron reacts with Ferrozine chromogen to form a magenta complex, which is measure spectrophotometrically. The unsaturated iron binding capacity (UIBC) is equal to the difference measured in the concentrations of the added iron solution and the excess unbound iron. Serum TIBC is equal to total serum iron plus UIBC and may therefore be calculated using the results of the UIBC and serum iron determinations.
In certain embodiments, serum iron may be determined using a test based on the FerroZine method without deproteinization. Specimens are analyzed on the Roche Modular Instrument utilizing Roche Diagnostics Reagents. Under acidic conditions, iron is liberated from transferrin. The detergent clarifies lipemic samples. Ascorbate reduces the released Fe3+ ions to Fe2+ ions, which then react with FerroZine to form a colored complex. The color intensity is directly proportional to the iron concentration and can be measured photometrically.

Series [2] deals with subjects receiving hemodialysis, previously maintained on epoetin alfa. The settings on record: human, in vivo.
Description: The primary endpoint was mean hemoglobin (Hb) change from pre-baseline average to midtrial (Weeks 7-8) and end-of trial (Weeks 15-16) and was analyzed using available data (no imputation).
Series [3] concerns anemic DD-CKD patients with incident dialysis and limited ESA exposure. Description: Phase 3 Incident DD-CKD (Correction/Conversion) trial, vadadustat vs darbepoetin alfa. The following applies: for Ferritin, mean / Hepcidin, mean / TSAT, mean: Incident trial. It counts as in vivo, human. Here is the method:
Two randomized Phase 3, open-label, sponsor-blind, active-controlled non-inferiority (NI) trials were conducted in anemic DD-CKD patients with incident dialysis and limited ESA exposure (Correction/Conversion trial) and with prevalent dialysis and established ESA treatment (Conversion trial). The primary safety endpoint was prespecified as the time to first major adverse cardiovascular event (MACE) (all-cause mortality, non-fatal MI, or non-fatal stroke) pooled across the two trials. Primary and key secondary efficacy endpoints were mean change in Hb from baseline [BL] to wks 24-36 and to wks 40-52 between two treatment arms, respectively.
Phase 3, randomized, open-label, active-controlled study of the efficacy and safety of vadadustat versus darbepoetin alfa for the maintenance treatment of anemia after the correction of hemoglobin (Hb) or conversion from current ESA therapy in subjects who have recently initiated dialysis treatment for DD-CKD. Following a Screening period of up to 8 weeks (56 days), subjects who met all inclusion and none of the exclusion criteria were randomized 1:1 to vadadustat or darbepoetin alfa.
Randomization were stratified by: • Geographic region (United States [US] versus European Union [EU] versus Rest of World [ROW]). • New York Heart Association congestive heart failure (CHF) Class 0 (no CHF) or I versus II or III. • Study entry hemoglobin (Hb) level (<9.5 or ≥9.5 g/dL).
Following randomization, there were 4 periods during the study: • Correction/Conversion Period (Weeks 0 to 23): initial period on study medication. • Maintenance Period (Weeks 24 to 52): period on study medication during which efficacy was assessed (primary evaluation period: Weeks 24 to 36; secondary evaluation period: Weeks 40 to 52). • Long-term Treatment Period (Weeks 53 to End of Treatment [EOT]): continued study medication to assess long-term safety. • Follow-up (EOT+4 weeks): post-treatment visit (either in person or via telephone) for safety.
Inclusion Criteria: Subjects met the following criteria: • ≥18 years of age. • Initiated chronic maintenance dialysis (either peritoneal or hemodialysis) for end-stage kidney disease within 16 weeks prior to Screening. • Mean screening hemoglobin (Hb) between 8.0 and 11.0 g/dL (inclusive), as determined by the average of 2 Hb values measured by the central laboratory during Screening. • Serum ferritin ≥100 ng/mL and transferrin saturation (TSAT) ≥20% at Screening. • Folate and vitamin B12 measurements lower limit of normal at Screening. • Understands the procedures and requirements of the study and provides written informed consent and authorization for protected health information disclosure.
Exclusion Criteria: Subjects were excluded if they met any of the following criteria: • Anemia due to a cause other than CKD or subjects with active bleeding or recent blood loss. • Subjects with sickle cell disease, myelodysplastic syndromes, bone marrow fibrosis, hematologic malignancy, myeloma, hemolytic anemia, thalassemia, or pure red cell aplasia. • Red blood cell (RBC) transfusion within 8 weeks prior to randomization. • Anticipated to recover adequate kidney function to no longer require dialysis. • Aspartate aminotransferase (AST)/serum glutamic oxaloacetic transaminase (SGOT), alanine aminotransferase (ALT)/serum glutamic pyruvic transaminase (SGPT), or total bilirubin >2.0×upper limit of normal (ULN) at or during Screening. […]

For `O=C(O)CNC(=O)c1ncc(-c2cccc(Cl)c2)cc1O` [Compound 1, Vadadustat], the serum iron levels result in series [1] (6 weeks post administration) was “not associated with an increase in serum iron levels”. Moreover, the “total iron binding capacity (TIBC) levels” value in series [1] (6 weeks post administration, compared to placebo treated patients) was “increase”. Further, the “transferrin saturation (TSAT)” value in series [1] (dose-related) is given as “decrease”. For the same molecule, the “deaths during the study” value in series [2] is “No deaths”. Besides, in series [3] (Baseline), the “Ferritin, mean” value is given as 469.72 ng/mL; the “Hepcidin, mean” value is recorded as 122.43 ng/mL; the “TSAT, mean” value was 31.32%. Besides, in series [3] (Weeks 24-36), the “Ferritin, mean” value stood at 495.73 ng/mL; the “Hepcidin, mean” value is reported as 96.05 ng/mL; the “TSAT, mean” value amounted to 31.65%. In series [3] (Weeks 40-52), the “Ferritin, mean” value stood at 555.47 ng/mL; the “Hepcidin, mean” value amounted to 95.73 ng/mL; the “TSAT, mean” value is 33.11%. Moreover, in series [3] (weeks 24-36), the “proportion of patients requiring RBC transfusions” value was found to be 1.3% and the “proportion of patients with an average hemoglobin value within the geography-specific target range” value is on record as 43.6%. For the same molecule, in series [3] (weeks 24 to 36), the “mean (SEM) change from baseline in hemoglobin” value is 1.26 (0.11) g/dL and the “mean difference between groups (vadadustat vs darbepoetin alfa) in change from baseline in hemoglobin” value was −0.31 (0.11) g/dL. In addition, in series [3] (weeks 40-52), the “proportion of patients requiring RBC transfusions” value was determined as 2.4% and the “proportion of patients with an average hemoglobin value within the geography-specific target range” value amounted to 39.8%. In series [3] (weeks 40 to 52), the “mean (SEM) change from baseline in hemoglobin” value is reported as 1.42 (0.132) g/dL and the “mean difference between groups (vadadustat vs darbepoetin alfa) in change from baseline in hemoglobin” value is −0.07 (0.13) g/dL.
